Results taken from patent US20240025903A1, “Bicyclic Compounds and Uses Thereof for the Treatment of Diseases” (Athira Pharma, Inc., priority 2020, published 2024).

Key:
MDCK cells = assay: Cell scattering behavior assay; assay type: cell-based; parameters: key: − indicates that the compound failed to significantly promote cell scattering behavior; + indicates maximum potency at or above 100 nM; ++ indicates maximum potency at or above 10 nM; +++ indicates maximum potency at or above 1 nM; ++++ indicates maximum potency at or above 0.1 nM; settings: 5 ng/mL HGF, 24 hours, normalized particle count vs HGF alone
Method: MDCK cells were grown under normal conditions and observed to spontaneously form tight colonies as they proliferate. MDCK cells respond to HGF treatment by moving away from each other (scattering), which is quantified to assess the amount of HGF/MET activation in the cell population. In this experiment, MDCK cells were plated in a 96-well format, treated with HGF and exemplary compounds, fluorescently stained, imaged in large fields, and scattering behavior was quantified. Quantification was determined by analyzing the number of continuous groups of cells compared to the total stained area imaged (normalized particle counts).
MDCK cells were plated at low density in black-walled imaging plates and allowed to attach overnight at 37° C. and 5% CO2 in DMEM+10% FBS. Cells were then starved to 2 hours in DMEM without FBS (“starve media”). Samples containing exemplary compounds were prepared in DMEM without FBS and included 5 ng/mL HGF protein (“treatment media”). A control curve was also prepared for each plate using HGF concentrations of 0, 5, 10, and 20 ng/mL. Starve media was replaced with treatment media and cells were incubated for 24 hours at 37° C. and 5% CO2.
After incubation, cells were fixed by replacing treatment media with cold ethanol and incubating for 20 minutes at 4° C. Cells were then rehydrated by washing with PBS and then with stain solution (fluorescent wheat germ agglutinin; WGA488 at 20 μg/mL in PBS). Cells were incubated with stain solution 30 minutes at room temperature after which stain solution was replaced with fresh PBS.
Fields of cells were imaged using an iCyte high content imager in the green wavelength. Images were converted to binary and analyzed for particle size and particle count. For the purpose of analysis, an individual cell touching no other cells or separated colonies of cells were identified as particles, and particle counts were normalized by the total signal area to account for differences in cell number. […] Compound potency was assessed by statistical increase in normalized particle count compared to HGF treatment alone.

[1] = Turbidimetric solubility assay; assay type: physicochemical; settings: PBS, 37° C., absorbance 620 nm; for solubility at 2 h: aqueous buffer, kinetic from dmso stock
Method: Aqueous solubility is a critical drug property that helps to predict bioavailability. Generally, compounds with aqueous solubility <100 μg/ml are poor drugs.
To assess a compound's solubility by turbidity, test compounds were first dissolved in organic solvent (DMSO) at a concentration of 10 mM. This compound solution was then diluted in aqueous solvent (PBS) in a dilution series from […] in a 96-well assay plate. Solutions were incubated at 37° C. for 2 hours.
In wells with test compounds over their solubility limit, the compound will precipitate, effectively blocking the passage of light and thus increasing the absorbance signal of UV light at a wavelength of 620 nm. Compounds were considered insoluble at a tested concentration if turbidity raises the absorbance more than 10% above control reads.

[2] = Parallel artificial membrane permeability assay (PAMPA); assay type: in vitro ADME; settings: PBS, room temperature
Method: Bioavailable drugs must permeate the cellular membranes of the lining of the digestive tract. To estimate the penetrability of exemplary compounds, the in vitro parallel artificial membrane permeability assay (PAMPA) was utilized.
Test compounds must have a standard curve in the final read plate to determine partitioned concentration of each drug. A 6-point standard curve was prepared for each compound from 0 to 200 μM in phosphate-buffered saline (PBS).
Test compound solution (300 μL in PBS) was added to the donor (bottom) well of the PAMPA plate in 5 replicates and PBS vehicle (200 μL) was added to the acceptor (top) wells of appropriate wells to match the loading of the donor plate. The bottom and top of the PAMPA plates were then sandwiched together. The PAMPA plates were then incubated at room temperature for 5 hours. After incubation, 150 μL of donor solution was added to a UV compatible plate containing the corresponding standard curve. 150 μL of acceptor well solution was added adjacent to the corresponding standard curve and donor well samples for that compound. The plate was then read using a UV plate reader.
Permeability and membrane retention were then calculated based on the following formulas:
Permeability (cm/s): (Pe)(cm/s)={−ln [1−CA(t)/Ceq]}/[A*(1/VD+1/VA)*t] (equation 1) • where: • A=filter area (0.3 cm^2); • VD=donor well volume (0.3 mL); • VA=acceptor well volume (0.2 mL); • t=incubation time (seconds); • CA(t)=compound concentration in acceptor well at time t; • CD(t)=compound concentration in donor well at time t; and • Ceq=[CD(t)*VD+CA(t)*VA]/(VD+VA).
Membrane Retention (R)=1−[CD(t)*VD+CA(t)*VA]/(C0*VD) (equation 2) • where: • CD(t), VD, CA(t), and VA are as defined for equation 1, and • C0=initial concentration in donor well (200 uM).

HepG2 cells = assay: Cytotoxicity assay (LDH release); assay type: cell-based; settings: 48 hours, 0.1 to 100 μM
Method: This experiment was designed to obtain a preliminary assessment of cytotoxicity.
HepG2 cells were plated in 96-well cell culture plates and allowed to attach overnight at 37° C., 5% CO2 in EMEM+10% FBS. Treatments were made in complete media (EMEM+10% FBS) and included a dilution series of test compounds from 0.1 to 100 μM. Known cytotoxin cerivastatin was used as a positive assay control and prepared at a final concentration of 0.5 μM.
Growth media was replaced with treatment media (EMEM+10% FBS containing test compound dissolved in DMSO) and cells were incubated with test compounds for 48 hours. At the end of the incubation period, supernatant media from each well was transferred to a new plate and LDH assay working solution was added. LDH assay solution undergoes a colorimetric reaction in proportion to the amount of lactate dehydrogenase (an intracellular protein that was only found in the media in the presence of lysed cells) in the media. Color reaction was quantified by measurement of absorbance at a wavelength of 490 nm.
The signal range of the assay was determined by no manipulation in a negative control treatment and full lysis of all cells in a lysis control sample. Compounds that increase the level of cytotoxicity more than 20% above negative control samples were considered cytotoxic in this assay.

SMILES | Potency (cell scattering) (MDCK cells) | solubility at 2 h [1] [µM] | Papp at 5 h, 200 µM [2] [×10⁻⁶ cm/s] | Cytotoxicity (HepG2 cells) | Solubility ([1]; 2 hours) | Permeability ([2]; 5 hours)
CCC(C)CN1CC2N(C(=O)c3ccc(C(F)(F)F)cc3)CCC(=O)N2[C@@H](C)C1=O (stereo partly drawn) [Compound 1a] | ++++ (++++ indicates maximum potency at or above 0.1 nM) | > 300 | > 2 | ++++ (++++ indicates non-toxic at 100 μM) |  | 
CCC(C)CN1CC2N(C(=O)c3ccc(OC(F)F)cc3)CCC(=O)N2[C@@H](C)C1=O (stereo partly drawn) [Compound 2a] | + (+ indicates maximum potency at or above 100 nM) | > 300 | < 2 | ++++ (++++ indicates non-toxic at 100 μM) |  | 
CCC(C)CN1CC2N(Cc3ccc(C(F)(F)F)cc3)CCC(=O)N2[C@@H](C)C1=O (stereo partly drawn) [Compound 5a] | ++++ (++++ indicates maximum potency at or above 0.1 nM) | > 300 | < 2 | ++++ (++++ indicates non-toxic at 100 μM) |  | 
CCC(C)CN1CC2N(Cc3ccc(OC(F)F)cc3)CCC(=O)N2[C@@H](C)C1=O (stereo partly drawn) [Compound 6a] | +++ (+++ indicates maximum potency at or above 1 nM) | > 300 | < 2 | ++++ (++++ indicates non-toxic at 100 μM) |  | 
CCC(C)CN1CC2N(Cc3ccc(O)nc3)CCC(=O)N2[C@@H](C)C1=O (stereo partly drawn) [Compound 7a] | ++ (++ indicates maximum potency at or above 10 nM) | > 300 | > 10 | ++++ (++++ indicates non-toxic at 100 μM) |  | 
CCC(C)CN1CC2N(C(=O)c3ccc(O)cc3)CCC(=O)N2[C@@H](C)C1=O (stereo partly drawn) [Compound 8a] | +++ (+++ indicates maximum potency at or above 1 nM) |  |  | ++++ (++++ indicates non-toxic at 100 μM) | ++++ (++++ indicates solubility at 300 μM) | + (+ indicates permeability above 1 × 10^−5 cm/s)
CCC(C)CN1CC2N(C(=O)c3ccc(F)cc3)CCC(=O)N2C(C)C1=O (stereo not drawn) [Compound 11, 1-(4-fluorobenzoyl)-6-methyl-8-(2-methylbutyl)hexahydro-4H-pyrazino[1,2-a]pyrimidine-4,7(6H)-dione] | ++ (++ indicates maximum potency at or above 10 nM) | > 300 | > 2 | ++++ (++++ indicates non-toxic at 100 μM) |  | 
CCC(C)CN1CC2N(C(=O)c3ccc(C(F)(F)F)c(Cl)c3)CCC(=O)N2C(C)C1=O (stereo not drawn) [Compound 12, 1-(3-chloro-4-(trifluoromethyl)benzoyl)-6-methyl-8-(2-methylbutyl)hexahydro-4H-pyrazino[1,2-a]pyrimidine-4,7(6H)-dione] | ++ (++ indicates maximum potency at or above 10 nM) | > 300 | < 2 | ++++ (++++ indicates non-toxic at 100 μM) |  | 
CC1C(=O)N(CC2CCC2)CC2N(C(=O)c3ccc(OC(F)F)cc3)CCC(=O)N12 (stereo not drawn) [Compound 14] |  | > 300 | > 2 | ++++ (++++ indicates non-toxic at 100 μM) |  | 
CCCCN1CC2N(C(=O)c3ccc(OC(F)F)cc3)CCC(=O)N2C(C)C1=O (stereo not drawn) [Compound 17] | − | > 300 | > 2 | ++++ (++++ indicates non-toxic at 100 μM) |  | 
CC1C(=O)N(CCC2CCCC2)CC2N(C(=O)c3ccc(C(F)(F)F)cc3)CCC(=O)N12 (stereo not drawn) [Compound 19] | +++ (+++ indicates maximum potency at or above 1 nM) | > 300 | < 2 | ++++ (++++ indicates non-toxic at 100 μM) |  | 
CC1C(=O)N(CCC2CCC2)CC2N(C(=O)c3ccc(C(F)(F)F)cc3)CCC(=O)N12 (stereo not drawn) [Compound 20] | +++ (+++ indicates maximum potency at or above 1 nM) | > 300 | < 2 | ++++ (++++ indicates non-toxic at 100 μM) |  | 
C=CCCN1CC2N(C(=O)c3ccc(C(F)(F)F)cc3)CCC(=O)N2C(C)C1=O (stereo not drawn) [Compound 22] | ++ (++ indicates maximum potency at or above 10 nM) | > 300 | < 2 | ++++ (++++ indicates non-toxic at 100 μM) |  | 
